From publication PMC12645083, “Microwave‐Enhanced Synthesis of 2‐Styrylquinoline‐4‐Carboxamides With Promising Anti‐Lymphoma Activity” (Archiv Der Pharmazie, 2025)

Tests used:
A549 = experiment: In vitro antiproliferative activity, resazurin cell viability; assay type: cell-based; details: Homo sapiens, non-small cell lung cancer, 72 h of treatment, mean ± SEM
Method: (§1) To test the newly synthesized compounds, various human cell lines were employed. HD‐MB03 cells were purchased from DSMZ (Braunschweig, Germany), while A549, MDA‐MB‐231, RPMI‐8420, SU‐DHL‐8, TOLEDO, VL51, SU‐DHL‐1, SU‐DHL‐18, and KM‐H2 were obtained from ATCC (Manassas, VA, USA). Cells were cultured in DMEM (for MDA‐MB‐231 and A549) or RPMI‐1640 (for RPMI‐8420, SU‐DHL‐8, TOLEDO, VL51, SU‐DHL‐1, SU‐DHL‐18, KM‐H2, and HD‐MB03) media (Gibco, Milan, Italy). Both media were supplemented with 115 units/mL penicillin G (Gibco, Milan, Italy), 115 µg/mL streptomycin (Invitrogen, Milan, Italy), and 10% fetal bovine serum (Invitrogen, Milan, Italy). Peripheral blood mononuclear cells (PBMCs) were isolated from healthy donors as previously described. For cytotoxicity assays, PBMCs were resuspended at 5 × 10⁵ cells/mL in complete RPMI medium with or without 2.5 µg/mL phytohemagglutinin (PHA) (Irvine Scientific) to stimulate T‐cell activation and proliferation. All cell lines were maintained at 37°C in a humidified atmosphere containing 5% CO₂. All compounds were dissolved in DMSO at a 10 mM stock concentration. For dose–response assays, cells were seeded in 96‐well plates at densities optimized for each cell line: HD‐MB03 at 10,000 cells/well, A549 at 4000 cells/well, and MDA‐MB‐231 at 7000 cells/well. All other cell lines were seeded at 20,000 cells/well in a final volume of 100 µL per well. After 24 h, cells were treated with a 6‐point serial dilution of compounds starting from 10 µM, in triplicate for statistical analysis. Seventy‐2 h posttreatment, 10 µL of resazurin solution (100 µg/mL) was added to each well, and cells were incubated for an additional 3–6 h. Fluorescence was measured using a Spark 10 M microplate reader (Tecan Group Ltd., Männedorf, Switzerland) with excitation at 535 nm and emission at 600 nm. The IC₅₀ was defined as the concentration of compound required to inhibit cell proliferation by 50% compared to cells treated with the highest DMSO concentration.
(§2) To test the newly synthesized compounds, various human cell lines were employed. HD-MB03 cells were purchased from DSMZ (Braunschweig, Germany), while A549, MDA-MB-231, RPMI-8420, SU-DHL-8, TOLEDO, VL51, SU-DHL-1, SU-DHL-18, and KM-H2 were obtained from ATCC (Manassas, VA, USA). Cells were cultured in DMEM (for MDA-MB-231 and A549) or RPMI-1640 (for RPMI-8420, SU-DHL-8, TOLEDO, VL51, SU-DHL-1, SU-DHL-18, KM-H2, and HD-MB03) media (Gibco, Milan, Italy). Both media were supplemented with 115 units/mL penicillin G (Gibco, Milan, Italy), 115 µg/mL streptomycin (Invitrogen, Milan, Italy), and 10% fetal bovine serum (Invitrogen, Milan, Italy). Peripheral blood mononuclear cells (PBMCs) were isolated from healthy donors as previously described. ^[1] For cytotoxicity assays, PBMCs were resuspended at 5 × 10⁵ cells/mL in complete RPMI medium with or without 2.5 µg/mL phytohemagglutinin (PHA) (Irvine Scientific) to stimulate T cell activation and proliferation. All cell lines were maintained at 37 °C in a humidified atmosphere containing 5% CO₂. All compounds were dissolved in DMSO at a 10 mM stock concentration. For dose–response assays, cells were seeded in 96-well plates at densities optimized for each cell line: HD-MB03 at 10,000 cells/well, A549 at 4,000 cells/well, and MDA-MB-231 at 7,000 cells/well. All other cell lines were seeded at 20,000 cells/well in a final volume of 100 µL per well. After 24 hours, cells were treated with a 6-point serial dilution of compounds starting from 10 µM, in triplicate for statistical analysis. Seventy-two hours post-treatment, 10 µL of resazurin solution (100 µg/mL) was added to each well, and cells were incubated for an additional 3–6 hours. Fluorescence was measured using a Spark 10M microplate reader (Tecan Group Ltd., Männedorf, Switzerland) with excitation at 535 nm and emission at 600 nm. […]

HD-MB03 = experiment: as above; assay type: cell-based; details: Homo sapiens, medulloblastoma cells, 72 h of treatment, mean ± SEM, at least three experiments
Method: as §1, §2

MDA-MB-231 = experiment: as above; assay type: cell-based; details: Homo sapiens, triple-negative breast cancer, 72 h of treatment, mean ± SEM
Method: as §1, §2

RPMI-8402 = experiment: as above; assay type: cell-based; details: Homo sapiens, T-lymphoblastic leukemia cells, 72 h of treatment, mean ± SEM
Method: as §1, §2

SU-DHL-8 = experiment: as above; assay type: cell-based; details: Homo sapiens, B lymphocyte, large cell lymphoma, 72 h of treatment, mean ± SEM
Method: as §1, §2

[1] = test system: panel of five tumor cell lines (HD-MB03, RPMI-8402, SU-DHL-8, A549, MDA-MB-231); experiment: Antiproliferative activity, range over the panel of five tumor cell lines; assay type: cell-based; details: Homo sapiens; range over the active cell lines of the five-line panel; 72 h
Method: The synthesized quinoline derivatives 4a–z and 4aa–ah were evaluated in vitro for their antiproliferative activity against a panel of five tumor cell lines (HD‐MB03, medulloblastoma; RPMI‐8402, T‐lymphoblastic leukemia; SU‐DHL‐8, B lymphocyte, large cell lymphoma; A549, non‐small cell lung cancer; MDA‐MB‐231, triple‐negative breast cancer) (Table 2). […] Replacing the 4‐Cl group with a trifluoromethyl group (4ac) reduced antiproliferative activity.
as §1

Ly10 (DLBCL) = details: Figure 1; cited from earlier work
TMD8 (DLBCL) = details: Figure 1; cited from earlier work
[2] = test system: VL51 (splenic B-cell lymphoma); details: Figure 1; cited from earlier work
Ly1 (DLBCL) = details: Figure 1; cited from earlier work

IC50 (A549) [µM]	IC50 (MDA-MB-231) [µM]	IC50 (SU-DHL-8) [µM]	IC50 [1] [µM]	Compound	IC50 (HD-MB03) [µM]	IC50 (RPMI-8402) [µM]	IC50 (Ly10 (DLBCL)) [µM]	IC50 (TMD8 (DLBCL)) [µM]	IC50 [2] [µM]	IC50 (Ly1 (DLBCL)) [µM]
> 10	> 10	7.09 ± 0.25	3.2 to 8.97	O=C(Nc1ccc(C(F)(F)F)cc1)c1cc(/C=C/c2ccccc2)nc2ccccc12 [4h, (E)-2-styryl-N-(4-(trifluoromethyl)phenyl)quinoline-4-carboxamide]	> 10	8.97 ± 0.75				
> 10	> 10	6.54 ± 0.44	3.2 to 8.97	O=C(Nc1ccc(C(F)(F)F)cc1)c1cc(/C=C/c2ccc(Cl)c(Cl)c2)nc2ccccc12 [4ab, (E)-2-(3,4-dichlorostyryl)-N-(4-(trifluoromethyl)phenyl)quinoline-4-carboxamide]	7.83 ± 0.98	> 10				
8.73 ± 0.74	7.84 ± 0.65	3.25 ± 0.23	3.2 to 8.97	Cc1cccc(/C=C/c2cc(C(=O)Nc3ccc(C(F)(F)F)cc3)c3ccccc3n2)c1 [4y, (E)-2-(3-methylstyryl)-N-(4-(trifluoromethyl)phenyl)quinoline-4-carboxamide]	3.84 ± 0.22	3.2 ± 0.19				
				C[C@H](Nc1ncnc2[nH]cnc12)c1cc2ccc(F)cc2nc1-c1ccccn1 [ACP-319]			0.8	0.15	3	
> 10	> 10	4.77 ± 0.32	3.2 to 8.97	O=C(Nc1ccc(C(F)(F)F)cc1)c1cc(/C=C/c2ccc(Cl)cc2)nc2ccccc12 [4z, (E)-2-(4-chlorostyryl)-N-(4-(trifluoromethyl)phenyl)quinoline-4-carboxamide]	6.73 ± 1.15	> 10				
> 10	> 10	> 10		O=C(Nc1ccccc1)c1cc(/C=C/c2ccccc2)nc2ccccc12 [4a, (E)-N-phenyl-2-styrylquinoline-4-carboxamide]	> 10	> 10				
> 10	> 10	4.45 ± 0.53		O=C(Nc1ccc(Cl)cc1)c1cc(/C=C/c2ccc(Cl)cc2)nc2ccccc12 [4af, (E)-N-(4-chlorophenyl)-2-(4-chlorostyryl)quinoline-4-carboxamide]	> 10	4.61 ± 0.24				
				O=S(=O)(Nc1cccc2cccnc12)c1ccc(F)cc1 [CU-O47]			0.7			0.7

Compound	IC50 (A549) [µM]	IC50 (MDA-MB-231) [µM]	IC50 (SU-DHL-8) [µM]	IC50 [1] [µM]	IC50 (HD-MB03) [µM]	IC50 (RPMI-8402) [µM]	IC50 (Ly10 (DLBCL)) [µM]	IC50 (TMD8 (DLBCL)) [µM]	IC50 [2] [µM]	IC50 (Ly1 (DLBCL)) [µM]
O=C(Nc1ccc([N+](=O)[O-])c(C(F)(F)F)c1)c1cc(/C=C/c2ccc(Cl)cc2)nc2ccccc12 [4w, (E)-2-(4-chlorostyryl)-N-(4-nitro-3-(trifluoromethyl)phenyl)quinoline-4-carboxamide]	> 10	> 10	8.25 ± 0.67	3.2 to 8.97	> 10	3.56 ± 0.44				
O=C(Nc1ccc([N+](=O)[O-])c(C(F)(F)F)c1)c1cc(/C=C/c2ccccc2)nc2ccccc12 [4j, (E)-N-(4-nitro-3-(trifluoromethyl)phenyl)-2-styrylquinoline-4-carboxamide]	> 10	> 10	3.86 ± 0.44	3.2 to 8.97	8.23 ± 0.47	> 10				
COc1ccc(/C=C/c2cc(C(=O)Nc3ccc([N+](=O)[O-])c(C(F)(F)F)c3)c3ccccc3n2)cc1 [4v, (E)-2-(4-methoxystyryl)-N-(4-nitro-3-(trifluoromethyl)phenyl)quinoline-4-carboxamide]	> 10	> 10	> 10		> 10	> 10				
